According to US20250304567A1, “PYRROLIDIONE DERIVATIVES AS INHIBITORS OF NF KAPPA B INDUCING KINASE” (priority 2022, published 2025):
Read-outs that look alike come from different tables or passages of the source.

What was measured:
[1] = molecular target: Recombinant Human NF-kappaB-Inducing Kinase (NIK/MAP3K14) (Homo sapiens, UniProt Q99558); assay: Inhibition of auto-phosphorylation of recombinant human NIK/MAP3K14 activity (AlphaScreen); assay type: biochemical; conditions: 5 μM ATP, 1 nM NIK, average if tested more than once
Recombinant Human NF-kappaB-Inducing Kinase (NIK/MAP3K14), sequence (Q99558 whole entry): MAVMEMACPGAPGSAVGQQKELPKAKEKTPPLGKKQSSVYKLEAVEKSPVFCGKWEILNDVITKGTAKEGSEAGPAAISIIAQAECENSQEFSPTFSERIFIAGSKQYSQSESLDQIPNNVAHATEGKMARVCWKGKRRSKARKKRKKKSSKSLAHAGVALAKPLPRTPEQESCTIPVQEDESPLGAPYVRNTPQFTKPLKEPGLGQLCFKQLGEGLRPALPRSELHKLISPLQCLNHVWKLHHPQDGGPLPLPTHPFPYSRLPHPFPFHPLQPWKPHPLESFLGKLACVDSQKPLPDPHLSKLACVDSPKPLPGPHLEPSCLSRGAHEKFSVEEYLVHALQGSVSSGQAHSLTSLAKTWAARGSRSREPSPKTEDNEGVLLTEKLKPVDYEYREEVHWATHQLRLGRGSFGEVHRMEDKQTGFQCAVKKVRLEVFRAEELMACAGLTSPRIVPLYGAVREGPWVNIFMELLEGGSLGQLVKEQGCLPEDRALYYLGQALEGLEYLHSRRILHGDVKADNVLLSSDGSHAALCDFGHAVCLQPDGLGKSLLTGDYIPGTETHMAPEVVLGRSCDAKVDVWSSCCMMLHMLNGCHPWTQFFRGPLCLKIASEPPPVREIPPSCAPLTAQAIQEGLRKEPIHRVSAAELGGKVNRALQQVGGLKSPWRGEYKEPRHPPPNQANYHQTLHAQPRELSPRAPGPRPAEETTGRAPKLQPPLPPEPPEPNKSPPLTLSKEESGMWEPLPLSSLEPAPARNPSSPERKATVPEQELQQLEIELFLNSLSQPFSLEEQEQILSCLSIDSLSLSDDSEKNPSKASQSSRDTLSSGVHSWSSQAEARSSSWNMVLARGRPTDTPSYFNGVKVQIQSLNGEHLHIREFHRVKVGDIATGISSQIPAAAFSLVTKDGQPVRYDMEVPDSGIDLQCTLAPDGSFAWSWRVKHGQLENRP
How it was run: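 AlphaScreen detection of phospho-Ser176/180 after 1 nM GST-NIK auto-phosphorylates for 2 h at 25 °C with 5 μM ATP (50 mM Tris pH 7.5, 0.7% DMSO). IC50s come from sigmoidal curves of % inhibition against log dose, using enzyme-free, ATP-free low controls and full-activity high controls.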

[2] = test system: p-IKKa levels in L363 (NIK translocated multiple myeloma) cells; assay: Effect of compounds on p-IKKa levels in L363 (NIK translocated multiple myeloma) cells (AlphaLISA SureFire Ultra p-IKKa Ser176/180); assay type: cell-based, human; conditions: average if tested more than once, read-out: Assay 2 IC50
How it was run: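 Phospho-IKKa (Ser176/180) in lysates quantified by AlphaLISA after 6 h compound exposure, 11-point threefold dilutions, 0.3% DMSO. L363 cells were pre-stimulated overnight and assayed with 250 ng/ml BAFF and 10 μM MG132; % inhibition fitted sigmoidally for IC50, duplicate curves.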

[3] = Homo sapiens, L-363, p-IKKa levels in L363 cells

| SMILES | IC50 [1] | IC50 ([2]; p-IKKa levels in L363 cells) | IC50 [2, 3] |
| --- | --- | --- | --- |
| CN1CC(F)(F)C(O)(c2cccc(-c3nc(-c4ccnc(Nc5ccn(C)n5)n4)cs3)c2)C1=O (single isomer, unassigned) [Example 36, 4,4-difluoro-3-hydroxy-1-methyl-3-(3-(4-(2-((1-methyl-1H-pyrazol-3-yl)amino)pyrimidin-4-yl)thiazol-2-yl)phenyl)pyrrolidin-2-one] | < 100 nM | 100 to 500 nM |  |
| C[C@@H](Nc1nccc(-c2nc(-c3cc([C@]4(O)CCN(C)C4=O)ccn3)cs2)n1)c1ccnn1C [Example 291, (R)-3-Hydroxy-1-methyl-3-(2-(2-(2-(((R)-1-(1-methyl-1H-pyrazol-5-yl)ethyl)amino)pyrimidin-4-yl)thiazol-4-yl)pyridin-4-yl)pyrrolidin-2-one] | < 100 nM |  | 100 to 500 nM |
| CN1CC[C@@](O)(c2cccc(-c3coc(-c4ccnc(Nc5ccn(C)n5)n4)n3)c2)C1=O [Example 4, (R)-3-hydroxy-1-methyl-3-(3-(2-(2-((1-methyl-1H-pyrazol-3-yl)amino)pyrimidin-4-yl)oxazol-4-yl)phenyl)pyrrolidin-2-one] | < 100 nM |  | > 501 nM |
| CN1CC[C@@](O)(c2cccc(-c3nc(-c4ccnc(N[C@H]5C[C@H](O)C5)n4)cs3)c2)C1=O [Example 109, (R)-3-hydroxy-3-(3-(4-(2-(((1R,3R)-3-hydroxycyclobutyl)amino)pyrimidin-4-yl)thiazol-2-yl)phenyl)-1-methylpyrrolidin-2-one] | 100 to 500 nM |  | > 501 nM |
| CN1CC[C@@](O)(c2cccc(-c3nc(-c4ccnc(NCc5ncco5)n4)cs3)c2)C1=O [Example 111, (R)-3-hydroxy-1-methyl-3-(3-(4-(2-((oxazol-2-ylmethyl)amino)pyrimidin-4-yl)thiazol-2-yl)phenyl)pyrrolidin-2-one] | < 100 nM |  | > 501 nM |
| CNc1nccc(-c2csc(-c3cccc([C@]4(O)CCN(C)C4=O)c3)n2)n1 [Example 170] | 100 to 500 nM |  | > 501 nM |
| CN1CC[C@@](O)(c2cccc(-c3csc(-c4ccnc(Nc5cnn(CCO)c5)n4)n3)c2)C1=O [Example 83, (R)-3-hydroxy-3-(3-(2-(2-((1-(2-hydroxyethyl)-1H-pyrazol-4-yl)amino)pyrimidin-4-yl)thiazol-4-yl)phenyl)-1-methylpyrrolidin-2-one] | < 100 nM |  | > 501 nM |
| CN1CC[C@@](O)(c2cccc(-c3nc(-c4ccnc(NCCCO)n4)cs3)c2)C1=O [Example 174] | < 100 nM |  | > 501 nM |
| CN1CC[C@@](O)(c2cccc(-c3nc(-c4ccnc(Nc5nn(C)c6ccccc56)n4)cs3)c2)C1=O [Example 69, (R)-3-hydroxy-1-methyl-3-(3-(4-(2-((1-methyl-1H-indazol-3-yl)amino)pyrimidin-4-yl)thiazol-2-yl)phenyl)pyrrolidin-2-one] | < 100 nM |  | > 501 nM |
| CN1CC[C@@](O)(c2cccc(-c3csc(-c4ccnc(Nc5ccn(CC6CC6)n5)n4)n3)c2)C1=O [Example 289, (R)-3-(3-(2-(2-((1-(cyclopropylmethyl)-1H-pyrazol-3-yl)amino)pyrimidin-4-yl)thiazol-4-yl)phenyl)-3-hydroxy-1-methylpyrrolidin-2-one] | > 501 nM |  | > 501 nM |
| CN1CC[C@@](O)(c2cccc(-c3nc(-c4ccnc(N[C@H]5CCOC5)n4)cs3)c2)C1=O [Example 250] | < 100 nM |  | > 501 nM |
| Cc1ncc(CNc2nccc(-c3csc(-c4cccc([C@]5(O)CCN(C)C5=O)c4)n3)n2)o1 [Example 110, (R)-3-hydroxy-1-methyl-3-(3-(4-(2-(((2-methyloxazol-5-yl)methyl)amino)pyrimidin-4-yl)thiazol-2-yl)phenyl)pyrrolidin-2-one] | < 100 nM |  | > 501 nM |
| CC(Nc1nccc(-c2nc(-c3cccc(C4(O)CCN(C)C4=O)c3)cs2)n1)c1cc[nH]n1 (single isomer, unassigned) [Example 41] | < 100 nM | 100 to 500 nM |  |
| CN1CC[C@@](O)(c2ccnc(-c3csc(-c4ccnc(Nc5cnn(C)c5)n4)n3)c2)C1=O (single isomer, unassigned) [Example 151] | < 100 nM |  | < 100 nM |
| CN1CC[C@@](O)(c2cccc(-c3nc(-c4ccnc(NCc5ccnn5C)n4)cs3)c2)C1=O [Example 197] | < 100 nM |  | > 501 nM |
| COC[C@H](Nc1nccc(-c2nc(-c3cccc([C@]4(O)CCN(C)C4=O)c3)cs2)n1)c1ccnn1C (single isomer, unassigned) [Example 129] | < 100 nM |  | 100 to 500 nM |
